The record followed here is ChEMBL document CHEMBL3817845, “Development of CNS multi-receptor ligands: Modification of known D2 pharmacophores” (Bioorg Med Chem, 2016).

As a reminder, the inhibition is the drop in the measured response relative to a control, in per cent. The term logP denotes the decadic logarithm of the partition coefficient of the neutral form, usually between octanol and water. Low readings indicate a more hydrophilic compound, high ones a more lipophilic compound. As a reminder, the pKi is the Ki on a negative log10 scale, so that one unit is a factor of ten.

The target of data set [1] is T1, D(3) dopamine receptor (Homo sapiens, UniProt P35462). Nature of the data set: Displacement of [3H]N-methylspiperone from human recombinant dopamine D3 receptor incubated for […] by microbeta scintillation counting method.
Data set [2] deals with T2, D(4) dopamine receptor (Homo sapiens, UniProt P21917).
T2 sequence (P21917 whole entry): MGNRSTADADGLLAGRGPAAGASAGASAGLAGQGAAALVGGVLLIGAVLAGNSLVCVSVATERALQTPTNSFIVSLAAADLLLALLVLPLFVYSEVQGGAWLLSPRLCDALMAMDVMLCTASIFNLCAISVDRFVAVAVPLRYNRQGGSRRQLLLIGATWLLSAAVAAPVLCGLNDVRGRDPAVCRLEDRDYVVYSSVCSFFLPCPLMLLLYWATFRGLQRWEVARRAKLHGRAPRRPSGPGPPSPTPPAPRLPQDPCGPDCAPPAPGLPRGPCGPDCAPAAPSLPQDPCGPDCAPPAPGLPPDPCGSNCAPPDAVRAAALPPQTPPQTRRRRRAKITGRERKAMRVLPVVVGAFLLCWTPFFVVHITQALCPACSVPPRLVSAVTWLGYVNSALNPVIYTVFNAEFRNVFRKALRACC
Put plainly: Displacement of [3H]N-methylspiperone from human recombinant dopamine D4 receptor incubated for […] by microbeta scintillation counting method. (In general: In a radioligand displacement assay an active substance lowers the binding of a labelled ligand.)

Data set [3] deals with T3, 5-hydroxytryptamine receptor 2C (5HT2C) (Homo sapiens, UniProt P28335).
T3 sequence (P28335 whole entry): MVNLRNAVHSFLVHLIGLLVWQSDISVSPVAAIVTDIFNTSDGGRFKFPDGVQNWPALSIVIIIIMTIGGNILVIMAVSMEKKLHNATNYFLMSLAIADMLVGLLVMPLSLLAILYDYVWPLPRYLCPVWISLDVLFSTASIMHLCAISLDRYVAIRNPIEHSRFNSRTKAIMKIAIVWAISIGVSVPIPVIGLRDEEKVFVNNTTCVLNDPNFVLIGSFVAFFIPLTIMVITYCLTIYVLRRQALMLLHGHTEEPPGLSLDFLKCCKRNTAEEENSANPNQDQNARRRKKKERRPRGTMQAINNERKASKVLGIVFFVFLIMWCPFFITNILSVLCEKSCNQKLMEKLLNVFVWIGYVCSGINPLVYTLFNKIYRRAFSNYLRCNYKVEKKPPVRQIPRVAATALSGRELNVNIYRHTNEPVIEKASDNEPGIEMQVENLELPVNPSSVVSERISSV
Put plainly: (§1) Displacement of [3H]Mesulergine from human recombinant 5HT2C receptor incubated for […] by microbeta scintillation counting method. As to conditions: human, recombinant 5HT2C receptor, probe [3H]Mesulergine.

Data set [4] addresses Histamine H1 receptor (Homo sapiens, UniProt P35367). Put plainly: Displacement of [3H]Pyrilamine from human recombinant histamine H1 receptor incubated for […] by microbeta scintillation counting method.
Data set [5] deals with 5-hydroxytryptamine receptor 2B (Homo sapiens, UniProt P41595). Put plainly: Displacement of [3H]LSD from human recombinant 5HT2B receptor incubated for […] by microbeta scintillation counting method.
For data set [6], the target named is D(2) dopamine receptor (Homo sapiens, UniProt P14416). Put plainly: Displacement of [3H]N-methylspiperone from human recombinant dopamine D2 receptor incubated for […] by microbeta scintillation counting method.
Data set [7] has as its target Sodium-dependent serotonin transporter (Homo sapiens, UniProt P31645). Nature of the data set: Displacement of [3H]Citalopram from human recombinant SERT incubated for […] by microbeta scintillation counting method.
For data set [8], the target named is 5-hydroxytryptamine receptor 7 (Homo sapiens, UniProt P34969). Nature of the data set: Displacement of [3H]LSD from human recombinant 5HT7 receptor incubated for […] by microbeta scintillation counting method.
In data set [9] the target is T4, 5-hydroxytryptamine receptor 1A (Homo sapiens, UniProt P08908).
T4 sequence (P08908 whole entry): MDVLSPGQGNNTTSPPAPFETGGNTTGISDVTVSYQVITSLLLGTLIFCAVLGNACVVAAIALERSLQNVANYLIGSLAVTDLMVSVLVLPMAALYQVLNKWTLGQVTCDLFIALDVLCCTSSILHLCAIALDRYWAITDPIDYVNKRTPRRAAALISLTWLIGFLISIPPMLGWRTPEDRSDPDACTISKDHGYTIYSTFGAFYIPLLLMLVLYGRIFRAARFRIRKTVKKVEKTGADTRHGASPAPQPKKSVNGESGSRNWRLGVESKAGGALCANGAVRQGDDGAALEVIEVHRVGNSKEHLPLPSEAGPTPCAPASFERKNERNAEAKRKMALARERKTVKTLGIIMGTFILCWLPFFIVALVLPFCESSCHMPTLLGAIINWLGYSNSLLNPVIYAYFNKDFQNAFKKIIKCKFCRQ
Nature of the data set: (§2) Displacement of [3H]8-OH-DPAT from human recombinant 5HT1A receptor incubated for […] by microbeta scintillation counting method.

The target in data set [10] is T5, 5-hydroxytryptamine receptor 2A (Homo sapiens, UniProt P28223). Nature of the data set: Displacement of [3H]Ketanserin from human recombinant 5HT2A receptor incubated for […] by microbeta scintillation counting method.
A short description of data set [11]: Lipophilicity, log P of the compound. Format: physicochemical. As to conditions: octanol/water.
The target of data set [12] is T6, 5-hydroxytryptamine receptor 1A (Homo sapiens) (UniProt P08908).
T6 sequence (whole entry): T4 sequence (P08908 whole entry)
The data set is described as §2.

Data set [13] deals with T1, D(3) dopamine receptor. Nature of the data set: Displacement of [125I]-IABN from human recombinant dopamine D3 receptor expressed in HEK293 cell membrane incubated for 60 mins filtration binding assay.
The target in data set [14] is T5, 5-hydroxytryptamine receptor 2A. Put plainly: Binding affinity to 5HT2A receptor (unknown origin).
Data set [15] addresses T7, 5-hydroxytryptamine receptor 2C (Homo sapiens, UniProt P28335).
T7 sequence (P28335 whole entry): T3 sequence (P28335 whole entry)
The data set is described as §1.

T5 sequence (P28223 whole entry): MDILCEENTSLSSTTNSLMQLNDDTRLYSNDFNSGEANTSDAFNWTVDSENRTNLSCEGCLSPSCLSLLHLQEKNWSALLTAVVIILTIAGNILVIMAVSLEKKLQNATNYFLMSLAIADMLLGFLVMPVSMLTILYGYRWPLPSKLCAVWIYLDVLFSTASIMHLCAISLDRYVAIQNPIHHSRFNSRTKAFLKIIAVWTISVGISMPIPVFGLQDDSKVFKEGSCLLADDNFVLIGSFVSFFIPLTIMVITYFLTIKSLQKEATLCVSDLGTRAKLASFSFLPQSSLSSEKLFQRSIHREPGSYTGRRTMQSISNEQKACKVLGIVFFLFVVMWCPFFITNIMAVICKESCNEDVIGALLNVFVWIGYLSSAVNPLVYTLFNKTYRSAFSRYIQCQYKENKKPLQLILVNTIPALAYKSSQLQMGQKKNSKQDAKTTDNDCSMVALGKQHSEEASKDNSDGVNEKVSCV
D(2) dopamine receptor, sequence (P14416 whole entry): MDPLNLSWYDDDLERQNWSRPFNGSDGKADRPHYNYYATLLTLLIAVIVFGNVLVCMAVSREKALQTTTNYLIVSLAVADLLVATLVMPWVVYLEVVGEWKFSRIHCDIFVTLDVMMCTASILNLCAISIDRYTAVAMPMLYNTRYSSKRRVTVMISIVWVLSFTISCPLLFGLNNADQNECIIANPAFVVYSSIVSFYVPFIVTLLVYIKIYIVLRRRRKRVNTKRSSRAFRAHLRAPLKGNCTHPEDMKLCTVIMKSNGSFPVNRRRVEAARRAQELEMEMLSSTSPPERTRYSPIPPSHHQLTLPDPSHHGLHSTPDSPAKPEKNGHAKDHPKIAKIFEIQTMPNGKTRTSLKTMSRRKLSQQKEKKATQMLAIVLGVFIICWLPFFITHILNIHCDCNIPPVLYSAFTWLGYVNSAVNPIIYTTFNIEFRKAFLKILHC
T1 sequence (P35462 whole entry): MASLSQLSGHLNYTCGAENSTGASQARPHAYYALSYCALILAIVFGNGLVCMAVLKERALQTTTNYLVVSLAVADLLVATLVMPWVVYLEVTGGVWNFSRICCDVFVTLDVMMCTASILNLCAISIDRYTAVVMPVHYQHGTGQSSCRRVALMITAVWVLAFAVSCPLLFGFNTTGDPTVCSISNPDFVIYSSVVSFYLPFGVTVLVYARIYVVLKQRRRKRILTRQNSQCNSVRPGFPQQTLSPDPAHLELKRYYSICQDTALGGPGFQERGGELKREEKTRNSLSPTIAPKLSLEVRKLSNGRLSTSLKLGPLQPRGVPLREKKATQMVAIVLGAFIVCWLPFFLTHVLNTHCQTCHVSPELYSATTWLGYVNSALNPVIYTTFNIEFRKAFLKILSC
5-hydroxytryptamine receptor 7, sequence (P34969 whole entry): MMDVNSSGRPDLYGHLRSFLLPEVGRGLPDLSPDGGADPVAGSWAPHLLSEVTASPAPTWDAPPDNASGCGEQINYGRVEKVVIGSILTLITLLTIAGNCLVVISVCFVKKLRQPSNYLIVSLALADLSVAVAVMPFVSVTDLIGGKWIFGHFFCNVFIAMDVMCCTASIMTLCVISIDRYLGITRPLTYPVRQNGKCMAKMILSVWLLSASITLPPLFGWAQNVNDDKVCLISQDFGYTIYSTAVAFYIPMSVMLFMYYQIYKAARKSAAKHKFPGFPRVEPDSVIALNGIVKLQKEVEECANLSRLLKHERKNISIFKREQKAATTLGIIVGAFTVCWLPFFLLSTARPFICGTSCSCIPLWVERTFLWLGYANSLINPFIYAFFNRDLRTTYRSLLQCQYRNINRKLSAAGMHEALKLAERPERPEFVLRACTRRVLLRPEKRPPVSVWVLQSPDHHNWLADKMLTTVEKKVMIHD
5-hydroxytryptamine receptor 2B, sequence (P41595 whole entry): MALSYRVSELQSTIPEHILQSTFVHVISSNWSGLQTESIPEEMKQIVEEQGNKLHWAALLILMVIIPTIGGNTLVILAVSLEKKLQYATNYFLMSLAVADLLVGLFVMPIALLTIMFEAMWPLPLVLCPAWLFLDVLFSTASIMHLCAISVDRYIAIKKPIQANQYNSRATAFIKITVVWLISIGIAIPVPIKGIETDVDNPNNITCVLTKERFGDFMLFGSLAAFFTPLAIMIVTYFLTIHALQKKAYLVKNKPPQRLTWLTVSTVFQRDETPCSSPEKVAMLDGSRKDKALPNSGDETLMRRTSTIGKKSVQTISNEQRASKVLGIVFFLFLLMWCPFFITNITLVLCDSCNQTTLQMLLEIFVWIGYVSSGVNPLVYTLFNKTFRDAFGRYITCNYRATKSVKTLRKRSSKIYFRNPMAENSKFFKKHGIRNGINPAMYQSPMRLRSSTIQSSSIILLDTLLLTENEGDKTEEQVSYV
Histamine H1 receptor, sequence (P35367 whole entry): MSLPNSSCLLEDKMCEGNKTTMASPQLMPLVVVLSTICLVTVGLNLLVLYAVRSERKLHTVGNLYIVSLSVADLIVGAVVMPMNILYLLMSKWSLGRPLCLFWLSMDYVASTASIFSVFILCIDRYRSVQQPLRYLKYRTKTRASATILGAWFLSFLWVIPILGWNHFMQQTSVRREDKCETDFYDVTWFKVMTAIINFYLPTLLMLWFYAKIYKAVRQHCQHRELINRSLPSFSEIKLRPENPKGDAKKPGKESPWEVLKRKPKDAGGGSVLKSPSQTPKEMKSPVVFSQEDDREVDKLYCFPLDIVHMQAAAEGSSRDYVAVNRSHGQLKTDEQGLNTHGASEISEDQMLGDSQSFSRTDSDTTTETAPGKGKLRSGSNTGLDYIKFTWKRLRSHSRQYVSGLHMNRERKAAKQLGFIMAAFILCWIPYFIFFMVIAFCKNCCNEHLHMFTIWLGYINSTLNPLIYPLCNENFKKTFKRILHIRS

As to `O=C(CCCCN1CCC2(CC1)C(=O)NCN2c1ccccc1)c1nc2ccccc2s1`, the Ki was determined as 18 nM in data set [1] and 162 nM in data set [2]. For the same molecule, in data set [3], the inhibition at […] was below 50%.
Regarding `O=C1NCN(c2ccccc2)C12CCN(CCCCc1nc3ccccc3o1)CC2`, the Ki came out at 535 nM in data set [4] (read-out: Ki); 905 nM in data set [5]; 10 nM in data set [6]; 21 nM in [1]; 1510 nM in [8]; 118 nM in data set [2]. Also, the Ki in data set [9] is 382 nM. The inhibition in [7] and in data set [10] was below 50% throughout. Also, the inhibition at […] in [3] was below 50%.
Regarding `O=C1NCN(c2ccccc2)C12CCN(CCCCc1nc3ccccc3s1)CC2`, the Ki was 504 nM in data set [4] (read-out: Ki); 122 nM in data set [5]; 24 nM in data set [6]; 32 nM in data set [1]; 626 nM in [8]; 132 nM in [2]. Besides, the Ki is 195 nM in data set [9] and above 10000 nM in data set [10]. For the same molecule, the inhibition in data set [7] is below 50%. Besides, the inhibition at […] in [3] was below 50%.
In turn, `O=C(CCCN1CCC(O)(c2ccc(Cl)cc2)CC1)c1ccc(F)cc1` [HALOPERIDOL] displayed a logP in data set [11] of 3.49.
As to `O=C(CCCCN1CCC(n2c(=O)[nH]c3cc(Cl)ccc32)CC1)c1nc2ccccc2s1`, the Ki in data set [1] amounted to 64 nM.
Turning to `O=C(CCCCN1CCN(C(c2ccc(F)cc2)c2ccc(F)cc2)CC1)c1nc2ccccc2s1`, the Ki in data set [6] was found to be 159 nM; in data set [1] it was 233 nM; in data set [8], 562 nM; in data set [2] it was 1220 nM; in data set [10], 1080 nM. The inhibition in [12] was below 50%.
`O=C(CCCN1CCC2(CC1)C(=O)NCN2c1ccccc1)c1ccc(F)cc1` [SPIPERONE] returned a logP in data set [11] of 2.78.
Regarding `O=C(CCCN1CCC(n2c(O)nc3ccccc32)CC1)c1ccc(F)cc1` [BENPERIDOL], the Ki stood at 0.29 nM in data set [13] and 1.2 nM in data set [14].
Consider `OC1(c2ccc(Cl)cc2)CCN(CCCCc2nc3ccccc3o2)CC1`, for which the Ki in data set [6] turned out to be 438 nM; in [1], 942 nM; in data set [2], 229 nM; in data set [9], 3150 nM; in data set [10], 5970 nM. In addition, the inhibition in data set [8] is below 50%.
Turning to `Fc1ccc(C(c2ccc(F)cc2)N2CCN(CCCCc3nc4ccccc4s3)CC2)cc1`, the Ki in [6] is 195 nM; in [1] it was 33 nM; in data set [8], 778 nM; in data set [2], 68 nM; in data set [10], 519 nM. For the same molecule, in data set [12], the inhibition is below 50%.
For the molecule `OC1(c2ccc(Cl)cc2)CC2CCC(C1)N2CCCCc1nc2ccccc2s1` (stereo not drawn), the values for the Ki in data set [5], in data set [7] (read-out: Ki) and in [8] were 342 nM, 180 nM and 1010 nM, respectively.
With `O=C1NCN(c2ccccc2)C12CCN(CCCCc1nc3cc(Cl)ccc3s1)CC2`, the Ki in data set [4] (read-out: Ki) was 263 nM; in data set [4] (read-out: pKi (converted)), 275 nM; in [5], 36 nM; in [6], 18 nM; in data set [7] (read-out: Ki), 3060 nM; in [1], 499 nM. The values for the Ki in data set [9] and in [15] were 102 nM and 614 nM, respectively.
For the molecule `OC1(c2ccc(Cl)cc2)CCN(CCCCc2nc3ccccc3s2)CC1`, the Ki in data set [1] came to 291 nM.
Consider `O=C1NCN(c2ccccc2)C12CCN(CCCCc1c[nH]c3ccccc13)CC2`, for which the Ki in data set [4] (read-out: Ki) is 273 nM; in data set [5] it was 202 nM; in data set [7] (read-out: Ki), 10 nM; in data set [7] (read-out: pKi (converted)), 4.68 nM; in data set [1] it was 31 nM; in data set [8], above 10000 nM. Besides, the Ki in [2] amounted to 1.6 nM; in data set [9] it was 376 nM. For the same molecule, the logP in data set [11] is 3.52. Besides, in data set [3], the inhibition at […] was below 50%.
In the case of `Cl.O=C(CCCCN1C2CCC1CC(O)(c1ccc(Cl)cc1)C2)c1nc2ccccc2s1` (stereo not drawn), the Ki was 1030 nM in [4] (read-out: Ki); 758 nM in [5]; 54 nM in [7] (read-out: Ki); 4.68 nM in data set [7] (read-out: pKi (converted)); 80 nM in data set [8]. In addition, the pKi in [6] came to 6.74. For the same molecule, the inhibition in data set [12] and in data set [10] was below 50% in each case. In data set [3], the inhibition at […] is below 50%.
As for `OC1(c2ccc(Cl)cc2)CCN(CCCc2nc3ccccc3s2)CC1`, the Ki was determined as 763 nM in data set [6]; 28 nM in data set [1]; 189 nM in [8]; 163 nM in data set [2]; 34 nM in [9]; 168 nM in data set [10].
